Molecular target: T1, MAP4K1 (HPK1) (Homo sapiens, UniProt Q92918)
T1 construct: purchased Thermo Fisher Scientific (Life Technologies) SelectScreen
Assay: SelectScreen LanthaScreen
Type: binding
Conditions: read-out: % displacement
Outline: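 SelectScreen broad panel; activity (Z'LYTE, Adapta) plus binding formats. ATP: Km app for CSF1R Z'LYTE; 10 for CAMK1 Adapta. Readout = % per kinase.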

T1 sequence (Q92918 whole entry): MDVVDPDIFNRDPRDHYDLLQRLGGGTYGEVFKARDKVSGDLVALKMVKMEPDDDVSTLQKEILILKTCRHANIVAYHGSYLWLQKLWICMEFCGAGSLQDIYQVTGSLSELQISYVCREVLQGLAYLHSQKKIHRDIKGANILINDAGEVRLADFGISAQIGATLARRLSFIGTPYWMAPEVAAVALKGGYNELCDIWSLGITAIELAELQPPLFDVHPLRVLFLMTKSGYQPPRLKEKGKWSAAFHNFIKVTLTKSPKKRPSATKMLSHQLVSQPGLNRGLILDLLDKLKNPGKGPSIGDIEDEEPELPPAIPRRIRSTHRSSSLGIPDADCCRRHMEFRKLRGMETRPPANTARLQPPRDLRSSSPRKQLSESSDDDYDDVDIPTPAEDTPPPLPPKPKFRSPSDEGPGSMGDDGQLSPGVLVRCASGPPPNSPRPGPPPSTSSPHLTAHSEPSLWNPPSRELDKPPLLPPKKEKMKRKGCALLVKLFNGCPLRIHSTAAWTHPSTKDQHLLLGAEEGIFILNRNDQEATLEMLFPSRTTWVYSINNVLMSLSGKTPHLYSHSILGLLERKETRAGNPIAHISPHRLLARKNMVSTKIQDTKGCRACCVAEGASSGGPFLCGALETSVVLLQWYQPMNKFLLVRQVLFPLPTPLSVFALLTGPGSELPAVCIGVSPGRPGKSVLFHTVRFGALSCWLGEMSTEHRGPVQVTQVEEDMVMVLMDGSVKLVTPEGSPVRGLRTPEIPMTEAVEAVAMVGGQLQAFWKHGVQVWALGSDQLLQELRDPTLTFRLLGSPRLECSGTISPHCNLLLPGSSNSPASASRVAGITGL

SMILES: CN(C(=O)CN1CCOCC1)c1ccc2sc3c(-c4cccc5c(=O)cc(N6CC7CCC(C6)O7)oc45)cccc3c2c1 [NU5455]
- inhibition at 1 µM: 1.6%
